In patent US4963570A, “1-(acetylaminophenyl)-2-aminopropanone derivatives and pharmaceutical compositions thereof” (Laboratoire L. Lafon, priority 1983, dated 1990):

Columns and labels:
male mice = experiment: acute toxicity, intraperitoneal (lethal doses); assay type: in vivo, mouse; settings: i.p.
Description: By intraperitoneal administration to male mice, the LD-30 (lethal dose for 30% of the animals tested) is of the order of 128 mg/kg and the LD-50 is of the order of about 200 mg/kg.

mice [1] = experiment: overall behavior and reactivities in mice; assay type: in vivo, mouse; settings: mice, i.p.; dose not stated
Description: (§1) Groups of three animals are observed before and then 0.25 hour, 0.50 hour, 1 hour, 2 hours, 3 hours and 24 hours after the administration of CRL 41 224.

rats [2] = experiment: overall behavior and reactivities in rats; assay type: in vivo, rat; settings: i.p., dose not stated
Description: as §1

mice [3] = experiment: interaction with apomorphine in mice; assay type: in vivo, mouse; settings: i.p.; dose not stated
Description: Groups of 6 mice receive CRL 41 224 0.5 hour before the subcutaneous injection of 1 or 16 mg/kg of apomorphine.

rats [4] = experiment: interaction with apomorphine in rats; assay type: in vivo, rat; settings: i.p., dose not stated
Description: CRL 41 224 is administered to groups of 6 rats 0.5 hour before the subcutaneous injection of 0.5 mg/kg of apomorphine.

rats [5] = experiment: interaction with amphetamine; assay type: in vivo, rat; settings: rats, i.p.; dose not stated
Description: Amphetamine (2 mg/kg) is injected intraperitoneally into groups of 6 rats 30 minutes after the administration of CRL 41 224.

mice [6] = experiment: interaction with reserpine; assay type: in vivo, mouse; settings: i.p.; dose not stated
Description: Four hours after the intraperitoneal injection of 2.5 mg/kg of reserpine, groups of 6 mice receive CRL 41 224.

mice [7] = experiment: interaction with oxotremorine; assay type: in vivo, mouse; settings: i.p.
Description: CRL 41 224 is administered to groups of 6 mice 0.5 hour before the intraperitoneal injection of 0.5 mg/kg of oxotremorine.

mice [8] = experiment: four plate test, traction and electric shock; assay type: in vivo, mouse; settings: i.p.
Description: The test is performed on groups of 10 mice 30 minutes after the administration of CRL 41 224.

mice [9] = experiment: action on the spontaneous motility (actimeter); assay type: in vivo, mouse; settings: mice, i.p.; dose not stated
Description: 0.5 hour after they have received CRL 41 224, the mice (6 per dose, 12 control animals) are placed in an actimeter, where their motility is recorded for 30 minutes.

mice [10] = experiment: action on the intergroup aggression; assay type: in vivo, mouse; settings: i.p., dose not stated
Description: After they have stayed for 3 weeks in the 2 halves of a cage divided by an opaque partition, groups of 3 mice receive CRL 41 224. Half an hour later, the two groups from the same cage are brought together by removal of the partition, and the number of fights which occur in 10 minutes is noted. Half the test is performed on ordinary mice (NMRI, C.E.R. January) and half on NMRI (Iffa Credo) mice.

mice [11] = experiment: motility reduced by habituation to the enclosure; assay type: in vivo, mouse; settings: i.p., dose not stated
Description: After they have stayed in the actimeters for 18 hours, the mice (6 per dose, 12 control animals) receive CRL 41 224. They are immediately returned to their respective enclosures and, half an hour later, their motility is recorded for 30 minutes.

mice [12] = experiment: motility reduced by hypoxic aggression; assay type: in vivo, mouse; settings: i.p., dose not stated
Description: Half an hour after they have received CRL 41 224, the mice (10 per dose, 20 control animals) are subjected to acute hypobaric anoxia [pressure reduction of 600 mm Hg (i.e. about 8×10^4 Pa) in 90 seconds; release of vacuum in 45 seconds] and are then placed in an actimeter, where their motility is recorded for 10 minutes.

mice [13] = experiment: interaction with barbital; assay type: in vivo, mouse; settings: i.p.; dose not stated
Description: Half an hour after the administration of CRL 41 224, groups of 10 mice receive an intraperitoneal injection of barbital (220 mg/kg).

mice [14] = experiment: action on the behavioral despair; assay type: in vivo, mouse; settings: i.p., dose not stated
Source text: Half an hour after they have received CRL 41 224, groups of 6 mice are placed in a beaker filled with water to a height of 6 cm. The total period of immobility between the 2nd and 6th minutes following immersion is noted.

CNS = experiment: overall neuropsychopharmacological (CNS) profile; assay type: in vivo, mouse; rat; settings: i.p., mice and rats; dose not stated
Description: The neuropsychopharmacological study of CRL 41 219 was carried out as indicated above for CRL 41 224.
The neuropsychopharmacological study of CRL 41 220 was carried out in accordance with the procedures given above for CRL 41 224.

[15] = tested on: peripheral α-adrenergic stimulation; experiment: signs of peripheral adrenergic stimulation; assay type: in vivo, mouse; rat; settings: i.p., dose not stated
Description: as §1

## CC(=O)Nc1ccc(C(=O)C(C)NC2CC2)cc1 (stereo not shown) [CRL 41 245]
Male mice
  LD-0 (maximum non-lethal dose): greater than 256 mg/kg
  LD-100: less than or equal to 512 mg/kg
Mice [1]
  excitation in mice: excitation with hyperreactivity in mice
  stereotype movements in mice: presence of stereotype movements in mice
Rats [2]
  excitation in rats: excitation with hyperreactivity in mice and rats
  stereotype movements in rats: presence of stereotype movements in mice and rats
Mice [3]
  hypothermia induced by apomorphine: antagonism of the hypothermia induced by apomorphine
Rats [4]
  stereotypies induced by apomorphine: potentiation of the stereotypies induced by apomorphine
Rats [5]
  stereotypies induced by amphetamine: potentiation of the stereotypies induced by apomorphine and amphetamine
Mice [6]
  hypothermia induced by reserpine: antagonism of the hypothermia induced by apomorphine, reserpine
  ptosis induced by reserpine: reduction in the ptosis induced by reserpine
Mice [7]; strong dose
  trembling due to oxotremorine: a reduction, at a strong dose, in the intensity of the trembling due to oxotremorine
Mice [7]; dose not stated
  hypothermia induced by oxotremorine: antagonism of the hypothermia induced by apomorphine, reserpine and oxotremorine
Mice [8]; strong/high dose
  convulsant effects of electric shock: total antagonism
Mice [8]; mice, dose not stated
  number of punished passes in the 4 plate test: increase in the number of punished passes
Mice [9]
  spontaneous motility / motor activity: increase in the spontaneous motor activity
Mice [10]
  intergroup aggression: a reduction in the intergroup aggression
Mice [11]
  motor activity after habituation to the enclosure: resumption in the motor activity of mice accustomed to their enclosure
Mice [12]
  motor recovery after hypoxic aggression: improvement in the motor recovery in mice subjected to acute hypoxia
Mice [13]
  sleep induced by barbital: reduction in the duration of the sleep induced by barbital
Mice [14]
  period of immobility or "despair": reduction in the period of immobility
CNS
  overall action on the CNS: behaves as an antidepressant with a strong stimulant component
[15]
  mydriasis: mydriasis in rats
  peripheral adrenergic stimulation, overall: peripheral α-adrenergic stimulation
[15]; mice and rats
  piloerection: piloerection in mice and rats
